Data published in paper PMC9424906 (Frontiers in Pharmacology, 2022).
Converted amounts (≈) assume the structure as drawn.

Assays:
ENT4 = ENT4 (Homo sapiens, UniProt Q7RTT9); assay: Nucleoside transporter uptake, ENT4-transfected MDCK cells
[1] = type: in vitro ADME, human, rat, mouse, dog, monkey
Protocol: (§1) Samples were analyzed using UPLC-MS/MS.

BCRP = target: T1, BCRP (Homo sapiens, UniProt Q9UNQ0); assay: Bidirectional transport in MDCK-BCRP monolayers; type: in vitro ADME; settings: dog, MDCK-BCRP, 5 µM
T1 construct: host or cells: MDCK (BCRP-MDCK)
T1 sequence (Q9UNQ0 1-655): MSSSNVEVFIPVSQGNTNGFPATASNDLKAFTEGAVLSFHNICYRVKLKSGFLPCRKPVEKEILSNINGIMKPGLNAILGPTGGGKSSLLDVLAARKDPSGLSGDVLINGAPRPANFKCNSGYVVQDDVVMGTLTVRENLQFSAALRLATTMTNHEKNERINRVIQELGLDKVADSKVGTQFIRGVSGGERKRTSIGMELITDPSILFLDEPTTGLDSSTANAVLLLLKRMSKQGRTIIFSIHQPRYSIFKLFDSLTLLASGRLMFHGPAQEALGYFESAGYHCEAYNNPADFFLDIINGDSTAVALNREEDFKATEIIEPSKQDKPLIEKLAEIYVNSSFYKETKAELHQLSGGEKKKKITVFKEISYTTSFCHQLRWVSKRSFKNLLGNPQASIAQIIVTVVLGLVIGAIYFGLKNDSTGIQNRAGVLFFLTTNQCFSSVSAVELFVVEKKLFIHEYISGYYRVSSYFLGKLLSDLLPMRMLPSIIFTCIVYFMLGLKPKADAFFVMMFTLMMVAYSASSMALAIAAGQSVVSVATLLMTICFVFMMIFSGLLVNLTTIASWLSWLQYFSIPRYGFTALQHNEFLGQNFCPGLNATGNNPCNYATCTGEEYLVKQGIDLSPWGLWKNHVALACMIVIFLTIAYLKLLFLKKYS
Protocol: Caco-2 (American Type Culture Collection), MDR1-MDCK (NIH), and BCRP-MDCK (transfected by Absorption Systems) cell monolayers were grown to confluence on collagen-coated, microporous membranes in 12-well assay plates. Caco-2 cells were cultured for 27 days, MDCK-MDR1 and MDCK-BCRP cells were cultured for 8 days prior to experiments. […] The experiment was carried out in Hanks’ balanced salt solution (HBSS) containing 10 mM HEPES and 15 mM glucose at pH 7.4. HBSS in the receiver chamber also contained 1% bovine serum albumin. Cells were first pre-incubated for 0.5 h in HBSS with or without the specific inhibitor (1 µM valspodar or 0.5 µM Ko143 for MDR1 and BCRP, respectively). […] Cell monolayers were dosed on the apical side (A to B) or basolateral side (B to A) and incubated at 37°C with 5% CO2 in a humidified incubator. Samples were taken from the donor and receiver chambers at 2 h. Each experiment was performed in duplicate. All samples were assayed by LC-MS/MS. The apparent permeability (Papp) and percent recovery were calculated as described previously ([Katoh et al., 2006]; [Xia et al., 2006]; [Li et al., 2008]).

[2] = Pharmacokinetics in C57BL/6 mice; type: in vivo, mouse; settings: male
Protocol: (§2) Adult male C57BL/6 mice and Sprague Dawley rats were purchased from Charles River Laboratory (Wilmington, MA). PK studies for mice and rats were conducted at NIH animal facility (Bethesda, MD). In-life dog and monkey PK studies were conducted at Absorption System (San Diego, CA) and Frontage Labs (Concord, OH), respectively. Dogs and monkeys were fasted overnight prior to dose administrations. All experimental procedures were reviewed and approved by the Animal Care and Use Committee (ACUC) of the NIH Division of Veterinary Resources (DVR) or CRO labs for in-life studies.
Male C57BL6 mice (n = 3 per time point, 24–40 g) were dosed at 5 mg/kg IV or 10 mg/kg oral gavage. The dosing volume was 3 mL/kg for IV and 10 ml/kg for PO. All dosing solutions were freshly prepared on the day of administration. Blood samples were collected over 24 h.
(§3) Blood samples from all groups and species were collected in K2EDTA tubes and stored on wet ice pending processing. Blood was centrifuged at 2200 g at 4°C for 10 min to isolate plasma. All samples were stored at -80°C until analysis.
(§4) Phoenix WinNonlin, version 8.1 (Certara, St. Louis, MO), was used to perform PK analysis with the non-compartmental approach (Models 200 and 201 for PO and IV datasets). The area under the plasma concentration vs. time curve (AUC) was calculated using the linear trapezoidal method. The terminal rate constant (λ) was obtained from the slope of at least three data points of the apparent terminal phase of the log-linear plasma concentration vs. time curve when available. AUC0–∞ was estimated as the sum of the AUC0–t (where t is the time of the last measurable concentration) and Ct/λ. The apparent terminal half-life (t½) was calculated as 0.693/λ. Bioavailability (F) was calculated using ratios of dose normalized AUC (AUC/Dose) obtained from PO and IV PK studies.

[3] = Pharmacokinetics in Cynomolgus monkeys; type: in vivo; settings: male, cynomolgus monkey
Protocol: as §2
The dosing volumes were 2 mL/kg for IV and 5 mL/kg for PO. Blood samples were obtained from each monkey up to 48 h after IV and PO administration. Urine samples were collected over 48 h for IV group.
as §3, §4

OCT1 = settings: cited from earlier work
OAT3 = settings: cited from earlier work
[4] = Liver microsomal stability, CD-1 mouse; type: in vitro ADME; settings: liver microsomes, pH 7.4, 0.5 mg/mL
Protocol: as §1

physchem = type: physicochemical; settings: pH 7.4, aqueous buffer, kinetic from dmso stock
Protocol: Kinetic aqueous solubility was determined at NCATS using Pion’s patented µSOL assay as described previously ([Sun et al., 2019]).

[5] = pH 7.4, with Ko143 0.5 µM, 0.5 µM Ko143
[6] = C57BL/6, mouse, in vivo, iv, 5 mg/kg
[7] = C57BL/6, mouse, in vivo, po, 10 mg/kg

Sequence of ENT4 (Q7RTT9 whole entry): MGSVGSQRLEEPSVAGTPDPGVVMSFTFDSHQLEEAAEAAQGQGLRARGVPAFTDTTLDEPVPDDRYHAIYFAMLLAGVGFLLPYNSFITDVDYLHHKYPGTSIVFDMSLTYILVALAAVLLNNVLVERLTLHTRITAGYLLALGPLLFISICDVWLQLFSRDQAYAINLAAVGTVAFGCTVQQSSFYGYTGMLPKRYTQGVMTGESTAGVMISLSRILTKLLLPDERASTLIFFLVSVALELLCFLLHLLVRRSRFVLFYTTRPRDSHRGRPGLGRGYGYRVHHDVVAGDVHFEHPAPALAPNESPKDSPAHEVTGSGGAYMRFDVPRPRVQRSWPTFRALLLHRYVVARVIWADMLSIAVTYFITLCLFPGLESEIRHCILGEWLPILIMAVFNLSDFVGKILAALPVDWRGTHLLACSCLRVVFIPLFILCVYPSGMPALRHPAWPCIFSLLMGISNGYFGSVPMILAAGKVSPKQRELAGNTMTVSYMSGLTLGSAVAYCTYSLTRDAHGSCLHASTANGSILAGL

With `N#C[C@@]1(c2ccc3c(N)ncnn23)O[C@H](CO)[C@@H](O)[C@H]1O` [GS-441524] as the compound, how does the “Difference in uptake compared to control cells” value (ENT4) read?
The value was “less than 2 fold”.

And the “Stability in cytosolic fractions” value [1]?
Its value is “stable”.

And the “Stability in liver microsomes” value [1]?
The value was “stable”.

And the Papp A→B at 2 h, 5 µM (BCRP; [5])?
The Papp A→B at 2 h, 5 µM was less than 0.198 ×10⁻⁶ cm/s.

What about the Papp B→A at 2 h, 5 µM (BCRP; [5]) of the same compound?
Its Papp B→A at 2 h, 5 µM is less than 0.281 ×10⁻⁶ cm/s.

And the Papp A→B at 2 h, 5 µM (BCRP; pH 7.4, no inhibitor)?
The Papp A→B at 2 h, 5 µM was less than 0.197 ×10⁻⁶ cm/s.

What about the Papp B→A at 2 h, 5 µM (BCRP; pH 7.4, no inhibitor) of the same compound?
The Papp B→A at 2 h, 5 µM was 0.385 ×10⁻⁶ cm/s.

What about the Vd [2, 6] of the same compound?
Its Vd is 2.4 L/kg.

What about the clearance [2, 6] of the same compound?
The clearance was 26 mL/min/kg.

What about the AUC(0-inf) [2, 7] of the same compound?
The AUC(0-inf) was 2540 ng·h/mL.

What about the Cmax [2, 7] of the same compound?
The Cmax was 582 ng/mL.

And the Tmax [2, 7]?
The Tmax was 1.5 h.

What about the bioavailability [2, 7] of the same compound?
Its bioavailability is 39%.

What about the half-life ([2]; C57BL/6, plasma, Mouse, PO 10 mg/kg) of the same compound?
Its half-life is 3.9 h.

What about the Vd ([3]; in vivo, iv, 2 mg/kg) of the same compound?
The Vd was 1.1 ± 0.04 L/kg.

What about the clearance ([3]; in vivo, iv, 2 mg/kg) of the same compound?
The clearance was 9.5 ± 1 mL/min/kg.

What about the AUC(0-inf) ([3]; in vivo, po, 5 mg/kg) of the same compound?
Its AUC(0-inf) is 734 ± 138 ng·h/mL.

What about the Cmax ([3]; in vivo, po, 5 mg/kg) of the same compound?
The Cmax was 59.4 ± 18.1 ng/mL.

And the Tmax ([3]; in vivo, po, 5 mg/kg)?
The Tmax was 2 h.

What about the bioavailability ([3]; in vivo, po, 5 mg/kg) of the same compound?
Its bioavailability is 8.3 ± 1.6%.

And the half-life ([3]; plasma, Monkey, PO 5 mg/kg)?
The half-life was 7.7 ± 1.4 h.

And the “Substrate of OCT1” value (OCT1)?
Its value is “not a substrate”.

What about the “Substrate of OAT3” value (OAT3) of the same compound?
Its value is “not a substrate”.

What about the half-life at 1 µM [4] of the same compound?
The half-life at 1 µM was 1.3 ± 0.05 h.

What about the solubility kinetic (physchem) of the same compound?
The solubility kinetic was 42 µg/mL (≈ 144 µM).
